Reference: US20200246284A1 (Academia Sinica, priority 2015, published 2020)

What was measured:
[1] = test system: H82; experiment: Cytotoxicity SCLC 72 hr alamar blue; assay type: cell-based, human
[2] = test system: H417; experiment: Cytotoxicity SCLC 72 hr alamar blue; assay type: cell-based, human
[3] = test system: H187; experiment: Cytotoxicity SCLC 72 hr alamar blue; assay type: cell-based, human
[4] = test system: H719; experiment: Cytotoxicity SCLC 72 hr alamar blue; assay type: cell-based, human
[5] = test system: BMMSC BM mesenchyme; experiment: Cytotoxicity normal tissue 72 hr; assay type: cell-based, human
[6] = test system: H3255; assay type: cell-based, human
[7] = test system: H562; experiment: Cytotoxicity SCLC 72 hr alamar blue; assay type: cell-based, human
[8] = test system: Ly18; experiment: Cytotoxicity DLBCL; settings: read-out: cytotoxicity IC50; LY18, DLBCL GCB
Description: (§1) After 72 hours, the cultures were pulsed with Alamar Blue overnight, and the fluorescent intensity of resulted cultures was measured by a Synergy H1 plate-reader (BioTek Inc).

[9] = test system: C57Bl/6 mice; experiment: Complete blood counts in healthy mice; assay type: in vivo, mouse
Excerpt: This is particularly striking in the case of neutrophils, red blood cells and platelets, whose levels are the most frequent dose limiting toxicities seen in clinic evaluation of alkylating drug therapy. There was a 3-4-fold increase in monocytes. The only negative effect was a modest reduction in WBC numbers due to mild lymphopenia at day 10 in the BO-treated group.

[10] = test system: nude mice bearing prostate 22Rv/HL2; experiment: Blood chemistry, 22Rv/HL2 xenograft mice; settings: 24 hrs after last treatment
[11] = test system: Ly10; settings: human
Description: as §1

[12] = test system: CB CD34+ cells (+FCS); experiment: Cytotoxicity normal tissue; assay type: cell-based, human
[13] = Plasma protein binding, equilibrium dialysis; assay type: in vitro ADME; settings: rat plasma, read-out: % bound (converted)
Excerpt: In drug discovery, the information on drug-plasma protein binding is valuable in evaluating and understanding, the absorption, distribution, metabolism and excretion (ADME)-related properties and the pharmacokinetic profile of drug candidates.

[14] = target: hERG (Homo sapiens, UniProt Q12809); experiment: in vitro
[15] = 30 mg/kg i.v. every other day x5
[16] = day 10, 30 mg/kg i.v. days 1,3,5,8,10

Chain of hERG (Q12809 whole entry): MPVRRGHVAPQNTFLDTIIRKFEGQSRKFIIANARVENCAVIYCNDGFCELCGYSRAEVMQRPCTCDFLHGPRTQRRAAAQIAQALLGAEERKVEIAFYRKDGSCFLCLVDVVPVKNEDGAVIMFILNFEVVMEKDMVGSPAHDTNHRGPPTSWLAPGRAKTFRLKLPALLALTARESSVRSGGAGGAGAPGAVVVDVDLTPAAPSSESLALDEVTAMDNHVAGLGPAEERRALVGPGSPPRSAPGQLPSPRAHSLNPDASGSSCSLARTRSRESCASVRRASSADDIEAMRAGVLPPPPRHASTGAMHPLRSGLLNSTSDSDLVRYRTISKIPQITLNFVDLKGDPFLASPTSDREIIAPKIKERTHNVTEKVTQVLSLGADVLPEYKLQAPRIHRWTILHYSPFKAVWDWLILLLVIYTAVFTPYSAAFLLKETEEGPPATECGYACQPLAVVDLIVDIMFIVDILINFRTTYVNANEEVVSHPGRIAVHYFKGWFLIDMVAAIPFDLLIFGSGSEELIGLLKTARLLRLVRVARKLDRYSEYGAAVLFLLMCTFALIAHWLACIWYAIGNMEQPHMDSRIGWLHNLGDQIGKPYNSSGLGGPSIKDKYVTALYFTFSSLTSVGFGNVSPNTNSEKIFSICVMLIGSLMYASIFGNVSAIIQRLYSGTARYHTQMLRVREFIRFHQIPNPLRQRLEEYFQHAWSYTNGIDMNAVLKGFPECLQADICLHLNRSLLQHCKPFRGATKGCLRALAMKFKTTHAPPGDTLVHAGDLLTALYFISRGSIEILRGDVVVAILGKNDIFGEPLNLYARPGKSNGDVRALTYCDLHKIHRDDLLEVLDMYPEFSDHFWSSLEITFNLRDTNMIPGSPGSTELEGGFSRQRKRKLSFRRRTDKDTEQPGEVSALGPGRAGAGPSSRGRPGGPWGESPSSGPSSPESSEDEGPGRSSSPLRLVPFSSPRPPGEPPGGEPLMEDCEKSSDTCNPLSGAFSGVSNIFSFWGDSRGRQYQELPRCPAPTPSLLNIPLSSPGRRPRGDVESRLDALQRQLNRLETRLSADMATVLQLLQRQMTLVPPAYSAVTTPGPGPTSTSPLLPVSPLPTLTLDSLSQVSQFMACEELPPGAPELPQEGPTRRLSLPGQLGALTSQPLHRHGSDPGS

With `N.N.[Cl][Pt][Cl]` [Cisplatin] the IC50 [1] was ≥ 20 µM, the IC50 [2] was 2.01 µM and the IC50 [3] was 1.01 µM. For the same compound, the IC50 [4] was 1.12 µM, the IC50 [5] was 20 µM and the IC50 [6] was ≥ 25 µM. The IC50 [7] was 1.39 µM.
In the case of `CN(C)CCNC(=O)c1cccc(NC(=O)Nc2ccc(N(CCCl)CCCl)cc2)c1` [BO-1055, Ureidomustine], the IC50 [8] is reported as 0.61 µM, the increase in monocytes [9, 15] is reported as 3-4 fold and the “suppression of hematologic parameters” value [9, 15] is reported as “no significant suppression”. It also gave an HCT [9, 16] of 46.30 ± 1.04%, an HGB [9, 16] of 13.08 ± 0.25 g/dL and an MCHC [9, 16] of 28.28 ± 0.42 g/dL. For the same compound, the MCV [9, 16] was 51.03 ± 1.25 fL, the MPV [9, 16] was 6.38 ± 0.09 fL and the PDW [9, 16] was 7.40 ± 0.24 fL. The PLT [9, 16] was 1108.3 ± 76.1 K/μL, the RBC [9, 16] was 9.08 ± 0.18 M/μL and the RDW-CV [9, 16] was 23.18 ± 0.64%. For the same compound, the RDW-SD [9, 16] was 32.48 ± 0.29 fL, the WBC [9, 16] was 5.34 ± 0.99 K/μL and the ALT [10] was 56.83 U/L. It also gave an AST [10] of 102.17 U/L, a BUN [10] of 37.23 mg/dL and a CREA [10] of 0.38 mg/dL. The UA [10] was 3.73 mg/dL, the IC50 [11] was 0.12 µM and the IC50 ([12]; Homo sapiens, CB CD34+ cells, +FCS) was > 10 µM. For the same compound, the IC50 ([12]; Homo sapiens, normal CB CD34+, FBS/FCS or serum free) was 9.9 to 10.2 µM, the IC50 ([12]; normal CB CD34+, FBS/FCS or serum free) was 8.5 to 10.5 µM and the fraction unbound at 2 h, 20 μM ([13]; 2 h) was 0.0032. For the same compound, the fraction unbound at 4 h, 20 μM ([13]; 4 h) was 0.0031, the fraction unbound at 6 h, 20 μM ([13]; 6 h) was 0.0799 and the fraction unbound at 24 h, 20 μM ([13]; 24 h) was 0.248. It also gave an IC50 [14] of 12.6 ± 1.64 µM.
